Test system in one data set: not listed separately
The data set is described as follows: log P by reversed-phase HPLC (EEC Directive 79/831 Annex V.A8). The data set is classed as physicochemical. As to conditions: reversed-phase C 18, 40° C., 0.1% aqueous formic acid and acetonitrile gradient. The protocol: Temperature: 40° C.; Mobile phases: 0.1% aqueous formic acid and acetonitrile; linear gradient from 10% acetonitrile to 90% acetonitrile.
As to `CCC(CO)Nc1cc(-c2ccnc(Nc3ccc(OC)nc3)n2)ccn1` (stereo not shown) [Compound 2], the “log PHCOOH” value came to 1.35.

Turning to `c1cc(Nc2nccc(-c3ccnc(NC4CCCCC4)c3)n2)cc(NC2CCCCC2)n1` [Compound 15], the “log PHCOOH” value is 1.52.

As to `CCC(C)Nc1cc(-c2ccnc(Nc3cccc(Cl)n3)n2)ccn1` (stereo not shown) [Compound 25], the “log PHCOOH” value was 2.00.

Regarding `CC(C)C(C)Nc1cc(-c2ccnc(Nc3ccnc(Cl)c3)n2)ccn1` (stereo not shown) [Compound 10], the “log PHCOOH” value is reported as 1.66.

Regarding `COCC(C)Nc1cc(-c2ccnc(Nc3ccc(OC)nc3)n2)ccn1` (stereo not shown) [Compound 38], the “log PHCOOH” value was 1.29.

For `c1cc(Nc2nccc(-c3ccnc(NC4CCCCC4)c3)n2)nc(NC2CCCCC2)c1` [Compound 4], the “log PHCOOH” value is 1.70.

With `CCC(CC)Nc1cc(Nc2nccc(-c3ccnc(NC(CC)CC)c3)n2)ccn1` [Compound 21], the “log PHCOOH” value amounted to 1.33.

As to `COc1ccc(Nc2nccc(-c3ccnc(NCC(C)C)c3)n2)cn1` [Compound 46], the “log PHCOOH” value amounted to 1.42.

Regarding `COc1ccc(Nc2nccc(-c3ccnc(N(C)C)c3)n2)cn1` [Compound 1], the “log PHCOOH” value amounted to 1.24.

In the case of `Clc1cc(Nc2nccc(-c3ccnc(NC4CCC4)c3)n2)ccn1` [Compound 11], the “log PHCOOH” value turned out to be 1.45.

On to `c1cc(Nc2nccc(-c3ccnc(NC4CCCC4)c3)n2)nc(NC2CCCC2)c1` [Compound 31], for which the “log PHCOOH” value is 1.23.

Turning to `CCCC(C)Nc1cc(Nc2nccc(-c3ccnc(NC(C)CCC)c3)n2)ccn1` (stereo not shown) [Compound 20], the “log PHCOOH” value is on record as 1.43.

With `CCC(CC)Nc1cc(-c2ccnc(Nc3ccnc(Cl)c3)n2)ccn1` [Compound 13], the “log PHCOOH” value amounted to 1.64.

With `c1cc(NCC2CCCO2)nc(Nc2nccc(-c3ccnc(NCC4CCCO4)c3)n2)c1` (stereo not shown) [Compound 7], the “log PHCOOH” value was determined as 0.86.

As for `CCCC(C)Nc1cc(-c2ccnc(Nc3ccnc(Cl)c3)n2)ccn1` (stereo not shown) [Compound 12], the “log PHCOOH” value amounted to 1.72.

As for `CCC(C)Nc1cc(Nc2nccc(-c3ccnc(NC(C)CC)c3)n2)ccn1` (stereo not shown) [Compound 23], the “log PHCOOH” value was determined as 1.10.

As to `CC(C)C(C)Nc1cc(-c2ccnc(Nc3cccc(Cl)n3)n2)ccn1` (stereo not shown) [Compound 26], the “log PHCOOH” value was 2.15.

`CCC(CC)Nc1cc(-c2ccnc(Nc3cccc(NC(CC)CC)n3)n2)ccn1` [Compound 30]: the “log PHCOOH” value stood at 1.47.

In the case of `Clc1cc(Nc2nccc(-c3ccnc(NC4CCCC4)c3)n2)ccn1` [Compound 14], the “log PHCOOH” value is 1.58.

Take `CCC(COC)Nc1cc(-c2ccnc(Nc3cccc(Cl)n3)n2)ccn1` (stereo not shown) [Compound 29]: the “log PHCOOH” value is recorded as 1.85.

On to `CCC(CC)Nc1cc(-c2ccnc(Nc3cccc(Cl)n3)n2)ccn1` [Compound 24], for which the “log PHCOOH” value is 2.09.

In the case of `c1cc(Nc2nccc(-c3ccnc(NC4CCC4)c3)n2)nc(NC2CCC2)c1` [Compound 3], the “log PHCOOH” value was found to be 1.12.

Turning to `Clc1cc(Nc2nccc(-c3ccnc(NC4CCCCC4)c3)n2)ccn1` [Compound 8], the “log PHCOOH” value worked out at 1.64.

As for `CCCCCNc1cc(Nc2nccc(-c3ccnc(NCCCCC)c3)n2)ccn1` [Compound 17], the “log PHCOOH” value came out at 1.57.

In the case of `c1cc(Nc2nccc(-c3ccnc(NC4CCCC4)c3)n2)cc(NC2CCCC2)n1` [Compound 22], the “log PHCOOH” value turned out to be 1.22.

With `CC(C)C(C)Nc1cc(Nc2nccc(-c3ccnc(NC(C)C(C)C)c3)n2)ccn1` (stereo not shown) [Compound 18], the “log PHCOOH” value was determined as 1.34.

As to `CCC(C)Nc1cc(-c2ccnc(Nc3ccc(OC)nc3)n2)ccn1` (stereo not shown) [Compound 39], the “log PHCOOH” value is 1.48.

`COCCCNc1cc(-c2ccnc(Nc3cccc(NCCCOC)n3)n2)ccn1` [Compound 6]: the “log PHCOOH” value was determined as 0.83.

On to `CC(C)C(C)Nc1cc(-c2ccnc(Nc3cccc(NC(C)C(C)C)n3)n2)ccn1` (stereo not shown) [Compound 33], for which the “log PHCOOH” value amounted to 1.43.

On to `CC(CN(C)C)Nc1cc(-c2ccnc(Nc3cccc(Cl)n3)n2)ccn1` (stereo not shown) [Compound 28], for which the “log PHCOOH” value was determined as 1.42.

Take `c1cc(Nc2nccc(-c3ccnc(NCC4CC4)c3)n2)cc(NCC2CC2)n1` [Compound 5]: the “log PHCOOH” value is on record as 0.97.

As for `CCC(C)Nc1cc(-c2ccnc(Nc3cccc(NC(C)CC)n3)n2)ccn1` (stereo not shown) [Compound 32], the “log PHCOOH” value is given as 1.23.

In the case of `CCC(COC)Nc1cc(Nc2nccc(-c3ccnc(NC(CC)COC)c3)n2)ccn1` (stereo not shown) [Compound 34], the “log PHCOOH” value turned out to be 1.10.

For the compound `c1cc(Nc2nccc(-c3ccnc(NC4CCC4)c3)n2)cc(NC2CCC2)n1` [Compound 19], the “log PHCOOH” value is on record as 1.05.

Turning to `c1cc(NCC2CC2)nc(Nc2nccc(-c3ccnc(NCC4CC4)c3)n2)c1` [Compound 16], the “log PHCOOH” value is reported as 0.96.

Consider `Clc1cccc(Nc2nccc(-c3ccnc(NCC4CCCO4)c3)n2)n1` (stereo not shown) [Compound 27], for which the “log PHCOOH” value is 1.64.

For the compound `COCC(C)Nc1cc(-c2ccnc(Nc3ccnc(Cl)c3)n2)ccn1` (stereo not shown) [Compound 35], the “log PHCOOH” value came to 1.34.

In the case of `COc1ccc(Nc2nccc(-c3ccnc(NC4COC4)c3)n2)cn1` [Compound 36], the “log PHCOOH” value was found to be 1.10.

Still in this data set, the particulars now being: reversed-phase C18 HPLC column, reversed-phase C 18, 40° C., 0.1% aqueous formic acid and acetonitrile gradient, read-out: log PHCOOH.
Take `CCC(COC)Nc1cc(-c2ccnc(Nc3ccnc(Cl)c3)n2)ccn1` (stereo not shown) [Compound 9, N-(2-chloropyridin-4-yl)-4-(2-{[1-(methoxymethyl)propyl]amino}pyridin-4-yl)pyrimidin-2-amine]: the chromatographic logP came out at 1.37.

For the next data set, the system named is Pyricularia grisea.
Assay: not given
The data set is classed as in vivo. As to conditions: 500 ppm; rice plants sprayed 24 hours before contamination; grading 6 days after contamination.
Regarding `CCC(COC)Nc1cc(-c2ccnc(Nc3ccnc(Cl)c3)n2)ccn1` (stereo not shown) [Compound 9, N-(2-chloropyridin-4-yl)-4-(2-{[1-(methoxymethyl)propyl]amino}pyridin-4-yl)pyrimidin-2-amine], the “protection (good, at least 70%, or total), % of efficacy” value is recorded as “at least 70%”.

Source of the values: patent US8273759B2, “Fungicide heterocyclyl-pyrimidinyl-amino derivatives” (Bayer Cropscience AG, priority 2007, dated 2012).
